Results taken from EP0606747A1, “Tilmicosin and derivatives for treating gram-positive diseases of aquatic species” (ELI LILLY AND COMPANY, priority 1992, dated 1994).
Converted amounts (≈) assume the structure as drawn. Where two headings read alike, the source gives them in different places.

Legend:
[1] = system: Renibacterium salmoninarum; experiment: In vitro evaluation of tilmicosin against Renibacterium salmoninarum (MIC); type: cell-based; details: for MIC: Renibacterium salmoninarum, read-out: minimum inhibitory concentration (MIC)
Method: Test 1: In vitro evaluation of tilmicosin against Renibacterium salmoninarum.
A dozen strains of Renibactenum salmoninarum were obtained and cultured in standard procedures. Eight grew successfully and were employed in the evaluation of tilmicosin.
Tilmicosin was evaluated at various concentrations and the minimum inhibitory concentration (MIC) determined for each of the strains. For three of the strains, the MIC was 1 µg/ml; for the remaining five strains, the MIC was 2 µg/ml.

[2] = Test 2: palatability and growth study in Atlantic salmon, medicated diets, four weeks; type: in vivo, Atlantic salmon (Salmo salar); details: all fish at the end of the four-week study
Method: Test 2: Palatability and growth studies in Atlantic salmon.
A trial was conducted to determine the palatability and effect on growth of Atlantic salmon (Salmo salar), St. John River strain, of diets containing various concentrations of tilmicosin. Pre-smolt salmon, each weighing about 50 grams, from a stock certified to be free of bacterial kidney disease, were used. The fish were acclimatized for four weeks. During this period, the fish were in tanks maintained with fresh single-pass flow-through well water, 10±2°C., and a photoperiod of 12/12. Water flow rate was adequate to provide a dissolved oxygen concentration of ≧ 5 mg/liter post feeding and under conditions of normal activity provided a dissolved oxygen concentration of ≧ 8 mg/liter. All fish were fed a standard diet. […]
All fish were fed 3× on weekdays and 1× or 2× on weekend days. […] The trial lasted four weeks, and the following parameters were determined: feed intake feed intake as % of body weight weight gain weight gain as % of body weight feed conversion At the end of the four weeks, the fish were sacrificed and tissue from liver, muscle, and kidney analyzed for tilmicosin by an HPLC assay. […] Quantitative determination of tilmicosin was accomplished by reversed-phase HPLC with a phenylsilyl stationary phase and a U.V. absorption detector at 280 nm. […]

[3] = Test 3: palatability and growth study in Atlantic salmon, tilmicosin base versus phosphate salt; type: in vivo, Atlantic salmon (Salmo salar); details: 800 mg/kg of diet (free base equivalent), four weeks; cause of death could not be determined
Method: Test 3: Palatability and Growth Studies in Atlantic Salmon, Comparing Tilmicosin Base and Phosphate Salt
A trial was conducted to determine the palatability to Atlantic salmon (Salmo salar), St. John River strain, of diets containing either tilmicosin (free base) or tilmicosin phosphate. Pre-smolt salmon, each weighing about 50 grams, from a certified disease free stock, were used. The salmon, 30 per tank and 9 tanks, were acclimatized for about two weeks. During this period and throughout the trial, the tanks were maintained with fresh single-pass flow-through well water, 2 liters per minute, 12 ± 1°C., and the photoperiod was 12/12. During the acclimatization, all fish were fed a standard feed. Thereafter the salmon in three tanks continued to receive the standard diet, to serve as a control. The salmon in three other tanks received a modified diet containing 800 mg of tilmicosin (free base) per kilogram of diet; the salmon in the last three tanks received a modified diet containing tilmicosin phosphate in an amount equivalent to 800 mg of tilmicosin (free base) per kilogram of diet. […] The trial was continued for a four-week period, during which these parameters were evaluated: feed intake feed intake as % of body weight weight gain weight gain as % of body weight feed conversion All surviving fish were euthanized. […]

Compound | MIC ([1]; remaining five of the eight strains) [µg/mL] | MIC ([1]; three of the eight strains) [µg/mL] | growth ([1]; lower concentrations down to 0.25 µg/ml) | Post-mortem examination [2] | mortality [3]
CC[C@H]1OC(=O)C[C@@H](O)[C@H](C)[C@@H](O[C@@H]2O[C@H](C)[C@@H](O)[C@H](N(C)C)[C@H]2O)[C@@H](CCN2C[C@H](C)C[C@H](C)C2)C[C@@H](C)C(=O)/C=C/C(C)=C/[C@@H]1CO[C@@H]1O[C@H](C)[C@@H](O)[C@@H](OC)[C@H]1OC [tilmicosin] | 2 (≈ 2.3 µM) | 1 (≈ 1.15 µM) | dramatic reduction in growth | no gross abnormalities | –
tilmicosin phosphate | – | – | – | – | One fish from the tank receiving tilmicosin phosphate died
